Assay results: patent US10597388B2, “Pyridazinone herbicides” (FMC CORPORATION, priority 2014, dated 2020)

Tests used:
Assay in all cases: Test E greenhouse herbicide test, pre- and postemergence
Type in all cases: in vivo
Conditions in all cases: Preemergence
[1] = tested on: Italian ryegrass (Lolium multiflorum)
Procedure, shortened: (§1)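 Compounds in a non-phytotoxic solvent mixture with surfactant were applied preemergence to seeds in silt loam soil and postemergence to 2-18 cm plants (1- to 4-leaf stage) in peat-based medium. After 14 to 21 d in a greenhouse, injury was rated visually against untreated controls on a 0 (no effect) to 100 (complete control) scale.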

[2] = tested on: foxtail, green (green foxtail, Setaria viridis)
Procedure, shortened: as §1

[3] = tested on: pigweed, palmer (palmer pigweed, Amaranthus palmeri)
Procedure, shortened: as §1

[4] = tested on: beggarticks (hairy beggarticks, Bidens pilosa)
Procedure, shortened: as §1

[5] = tested on: panicum, fall (fall panicum, Panicum dichotomiflorum)
Procedure, shortened: as §1

[6] = tested on: crabgrass, Brazilian (Brazilian crabgrass, Digitaria horizontalis)
Procedure, shortened: as §1

[7] = tested on: ragweed (common ragweed, Ambrosia elatior)
Procedure, shortened: as §1

[8] = tested on: barnyardgrass (Echinochloa crus-galli)
Procedure, shortened: as §1

[9] = tested on: velvetleaf (Abutilon theophrasti)
Procedure, shortened: as §1

[10] = tested on: field bindweed (Convolvulus arvensis)
Procedure, shortened: as §1

[11] = tested on: crabgrass, large (large crabgrass, Digitaria sanguinalis)
Procedure, shortened: as §1

kochia (Kochia scoparia) = tested on: kochia (Kochia scoparia)
Procedure, shortened: as §1

[12] = tested on: nutsedge, yellow (yellow nutsedge, Cyperus esculentus)
Procedure, shortened: as §1

corn (Zea mays) = tested on: corn (Zea mays)
Procedure, shortened: as §1

[13] = tested on: momingglory (Ipomoea coccinea)
Procedure, shortened: as §1

[14] = tested on: foxtail, giant (giant foxtail, Setaria faberii)
Procedure, shortened: as §1

[15] = 62 g ai/ha, scale 0 to 100 (0 no effect, 100 complete control)
[16] = 125 g ai/ha, scale 0 to 100 (0 no effect, 100 complete control)
[17] = 31 g ai/ha, scale 0 to 100, 0 no effect, 100 complete control
[18] = 250 g ai/ha, visual, scale 0 no effect to 100 complete control

C#CCOC(=O)Oc1c(C)nn(C)c(=O)c1-c1c(C)sc2ccc(C)cc12 [Compound 87]
Plant response rating, Ryegrass, Italian [1, 15]: 95 | Plant response rating, Ryegrass, Italian [1, 16]: 98 | Plant response rating, Ryegrass, Italian [1, 17]: 75 | Plant response rating, Ryegrass, Italian [1, 18]: 100 | Plant response rating, Foxtail, Green [2, 15]: 20 | Plant response rating, Foxtail, Green [2, 16]: 60 | Plant response rating, Foxtail, Green [2, 17]: 20 | Plant response rating, Foxtail, Green [2, 18]: 80 | Plant response rating, Pigweed, Palmer [3, 15]: 65 | Plant response rating, Pigweed, Palmer [3, 16]: 75 | Plant response rating, Pigweed, Palmer [3, 17]: 0 | Plant response rating, Pigweed, Palmer [3, 18]: 90 | Plant response rating, Beggarticks [4, 15]: 100 | Plant response rating, Beggarticks [4, 16]: 100 | Plant response rating, Beggarticks [4, 17]: 90 | Plant response rating, Beggarticks [4, 18]: 100 | Plant response rating, Panicum, Fall [5, 15]: 90 | Plant response rating, Panicum, Fall [5, 16]: 100 | Plant response rating, Panicum, Fall [5, 17]: 95 | Plant response rating, Panicum, Fall [5, 18]: 98 | Plant response rating, Crabgrass, Brazil [6, 15]: 80 | Plant response rating, Crabgrass, Brazil [6, 16]: 90 | Plant response rating, Crabgrass, Brazil [6, 17]: 60 | Plant response rating, Crabgrass, Brazil [6, 18]: 100 | Plant response rating, Ragweed [7, 15]: 95 | Plant response rating, Ragweed [7, 16]: 98 | Plant response rating, Ragweed [7, 17]: 98 | Plant response rating, Ragweed [7, 18]: 100 | Plant response rating, Barnyardgrass [8, 15]: 0 | Plant response rating, Barnyardgrass [8, 16]: 10 | Plant response rating, Barnyardgrass [8, 17]: 0 | Plant response rating, Barnyardgrass [8, 18]: 35 | Plant response rating, Velvetleaf [9, 15]: 60 | Plant response rating, Velvetleaf [9, 16]: 90 | Plant response rating, Velvetleaf [9, 17]: 0 | Plant response rating, Velvetleaf [9, 18]: 95 | Plant response rating, Field Bindweed [10, 15]: 98 | Plant response rating, Field Bindweed [10, 16]: 95 | Plant response rating, Field Bindweed [10, 17]: 40 | Plant response rating, Field Bindweed [10, 18]: 100 | Plant response rating, Crabgrass, Large [11, 15]: 0 | Plant response rating, Crabgrass, Large [11, 16]: 65 | Plant response rating, Crabgrass, Large [11, 17]: 0 | Plant response rating, Crabgrass, Large [11, 18]: 65 | Plant response rating, Kochia (kochia (Kochia scoparia); [15]): 100 | Plant response rating, Kochia (kochia (Kochia scoparia); [16]): 100 | Plant response rating, Kochia (kochia (Kochia scoparia); [17]): 65 | Plant response rating, Kochia (kochia (Kochia scoparia); [18]): 100 | Plant response rating, Nutsedge, Yellow [12, 15]: 60 | Plant response rating, Nutsedge, Yellow [12, 16]: 65 | Plant response rating, Nutsedge, Yellow [12, 17]: 0 | Plant response rating, Nutsedge, Yellow [12, 18]: 60 | Plant response rating, Corn (corn (Zea mays); [15]): 0 | Plant response rating, Corn (corn (Zea mays); [16]): 20 | Plant response rating, Corn (corn (Zea mays); [17]): 0 | Plant response rating, Corn (corn (Zea mays); [18]): 15 | Plant response rating, Morningglory [13, 15]: 35 | Plant response rating, Morningglory [13, 16]: 50 | Plant response rating, Morningglory [13, 17]: 20 | Plant response rating, Morningglory [13, 18]: 90 | Plant response rating, Foxtail, Giant [14, 15]: 65 | Plant response rating, Foxtail, Giant [14, 16]: 70 | Plant response rating, Foxtail, Giant [14, 17]: 25 | Plant response rating, Foxtail, Giant [14, 18]: 95
